Species on record: Rattus norvegicus
Test: DrugMatrix - Regimen: Daily Repeat
Type: toxicity, organism-based, Sprague-Dawley
Set-up: regimen Daily Repeat, gender Male, age 6-8 weeks
Settings: in vivo, po, route oral GAVAGE; for TOTAL BILIRUBIN / TOTAL PROTEIN / URIC ACID / ALANINE AMINOTRANSFERASE / ALBUMIN / ALKALINE PHOSPHATASE / ASPARTATE AMINOTRANSFERASE / BLOOD UREA NITROGEN / CARBON DIOXIDE / CHLORIDE / CHOLESTEROL / CREATINE PHOSPHOKINASE / CREATININE / GLUCOSE / LIPASE / PHOSPHORUS / POTASSIUM / SODIUM / LACTATE DEHYDROGENASE: tissue Plasma; for ABSOLUTE BASOPHIL / ABSOLUTE EOSINOPHIL / ABSOLUTE LYMPHOCYTE / ABSOLUTE MONOCYTE / BASOPHIL / EOSINOPHIL / ERYTHROCYTE COUNT / HEMATOCRIT / HEMOGLOBIN / LEUKOCYTE COUNT / LYMPHOCYTE / MEAN CORPUSCULAR HEMOGLOBIN / MEAN CORPUSCULAR HEMOGLOBIN CONCENTRATION / MEAN CORPUSCULAR VOLUME / MONOCYTE / NEUTROPHIL / PLATELET COUNT: tissue Blood
[1] = 40 mg/kg, 72 h, dose level Low, time 3 day, […]
[2] = 40 mg/kg, 120 h, dose level Low, time 5 day, […]
[3] = 40 mg/kg, […], dose level Low, time 14 day
[4] = 75 mg/kg, 72 h, dose level High, time 3 day, vehicle 100 % WATER
[5] = 75 mg/kg, 120 h, dose level High, time 5 day, vehicle 100 % WATER

C=CCN [ALLYLAMINE]
TOTAL BILIRUBIN [1]: 0.37 mg/dL
TOTAL PROTEIN [1]: 6.2 G/DL
URIC ACID [1]: 0.87 mg/dL
ABSOLUTE BASOPHIL [2]: 43.3 cells/µL
ABSOLUTE EOSINOPHIL [2]: 90 cells/µL
ABSOLUTE LYMPHOCYTE [2]: 7670 cells/µL
ABSOLUTE MONOCYTE [2]: 220 cells/µL
BASOPHIL [2]: 0.4%
EOSINOPHIL [2]: 0.87%
ERYTHROCYTE COUNT [2]: 6.74 x10E6/uL
HEMATOCRIT [2]: 45.3%
HEMOGLOBIN [2]: 14.1 G/DL
LEUKOCYTE COUNT [2]: 9.63 x10E3/uL
LYMPHOCYTE [2]: 79.33%
MEAN CORPUSCULAR HEMOGLOBIN [2]: 20.87 pg
MEAN CORPUSCULAR HEMOGLOBIN CONCENTRATION [2]: 31 G/DL
MEAN CORPUSCULAR VOLUME [2]: 67.23 fL
MONOCYTE [2]: 2.27%
NEUTROPHIL [2]: 16.57%
PLATELET COUNT [2]: 1351.33 x10E3/uL
ALANINE AMINOTRANSFERASE [2]: 42.33 u/L
ALBUMIN [2]: 4.03 G/DL
ALKALINE PHOSPHATASE [2]: 470.67 u/L
ASPARTATE AMINOTRANSFERASE [2]: 72.67 u/L
BLOOD UREA NITROGEN [2]: 16 mg/dL
CARBON DIOXIDE [2]: 41 mmol/L
CHLORIDE [2]: 105.33 MEQ/L
CHOLESTEROL [2]: 72 mg/dL
CREATINE PHOSPHOKINASE [2]: 350.33 u/L
CREATININE [2]: 0.53 mg/dL
GLUCOSE [2]: 155.33 mg/dL
LIPASE [2]: 249.67 u/L
PHOSPHORUS [2]: 9.53 mg/dL
POTASSIUM [2]: 6.27 MEQ/L
SODIUM [2]: 147.33 MEQ/L
TOTAL BILIRUBIN [2]: 0.47 mg/dL
TOTAL PROTEIN [2]: 6.63 G/DL
URIC ACID [2]: 0.9 mg/dL
ABSOLUTE BASOPHIL [3]: 50 cells/µL
ABSOLUTE EOSINOPHIL [3]: 42 cells/µL
ABSOLUTE LYMPHOCYTE [3]: 10000 cells/µL
ABSOLUTE MONOCYTE [3]: 250 cells/µL
BASOPHIL [3]: 0.38%
EOSINOPHIL [3]: 0.34%
ERYTHROCYTE COUNT [3]: 7.47 x10E6/uL
HEMATOCRIT [3]: 46.98%
HEMOGLOBIN [3]: 15.52 G/DL
LEUKOCYTE COUNT [3]: 12.8 x10E3/uL
LYMPHOCYTE [3]: 78.9%
MEAN CORPUSCULAR HEMOGLOBIN [3]: 20.78 pg
MEAN CORPUSCULAR HEMOGLOBIN CONCENTRATION [3]: 33.02 G/DL
MEAN CORPUSCULAR VOLUME [3]: 62.96 fL
MONOCYTE [3]: 1.9%
NEUTROPHIL [3]: 17.96%
PLATELET COUNT [3]: 1148.8 x10E3/uL
ALANINE AMINOTRANSFERASE [3]: 29 u/L
ALBUMIN [3]: 4.18 G/DL
ALKALINE PHOSPHATASE [3]: 389.8 u/L
ASPARTATE AMINOTRANSFERASE [3]: 69.2 u/L
BLOOD UREA NITROGEN [3]: 13.8 mg/dL
CARBON DIOXIDE [3]: 44.6 mmol/L
CHLORIDE [3]: 102.4 MEQ/L
CHOLESTEROL [3]: 74.2 mg/dL
CREATINE PHOSPHOKINASE [3]: 240 u/L
CREATININE [3]: 0.76 mg/dL
GLUCOSE [3]: 131.8 mg/dL
LACTATE DEHYDROGENASE [3]: 199 u/L
LIPASE [3]: 11.2 u/L
PHOSPHORUS [3]: 9.98 mg/dL
POTASSIUM [3]: 6.2 MEQ/L
SODIUM [3]: 145.8 MEQ/L
TOTAL BILIRUBIN [3]: 0.4 mg/dL
TOTAL PROTEIN [3]: 6.92 G/DL
URIC ACID [3]: 0.58 mg/dL
BASOPHIL [4]: 0.63%
EOSINOPHIL [4]: 0.23%
ERYTHROCYTE COUNT [4]: 6.73 x10E6/uL
HEMATOCRIT [4]: 44.27%
HEMOGLOBIN [4]: 14.4 G/DL
LEUKOCYTE COUNT [4]: 16.4 x10E3/uL
LYMPHOCYTE [4]: 77.37%
MEAN CORPUSCULAR HEMOGLOBIN [4]: 21.43 pg
MEAN CORPUSCULAR HEMOGLOBIN CONCENTRATION [4]: 32.6 G/DL
MEAN CORPUSCULAR VOLUME [4]: 65.77 fL
MONOCYTE [4]: 2.5%
NEUTROPHIL [4]: 16.67%
PLATELET COUNT [4]: 1260.67 x10E3/uL
ALANINE AMINOTRANSFERASE [4]: 39 u/L
ALBUMIN [4]: 3.9 G/DL
ALKALINE PHOSPHATASE [4]: 237 u/L
ASPARTATE AMINOTRANSFERASE [4]: 74.33 u/L
BLOOD UREA NITROGEN [4]: 13.67 mg/dL
CARBON DIOXIDE [4]: 24.67 mmol/L
CHLORIDE [4]: 108 MEQ/L
CHOLESTEROL [4]: 104.33 mg/dL
CREATINE PHOSPHOKINASE [4]: 169 u/L
CREATININE [4]: 0.4 mg/dL
GLUCOSE [4]: 146 mg/dL
LACTATE DEHYDROGENASE [4]: 59 u/L
LIPASE [4]: 35.33 u/L
PHOSPHORUS [4]: 11.03 mg/dL
POTASSIUM [4]: 5.8 MEQ/L
SODIUM [4]: 151 MEQ/L
TOTAL BILIRUBIN [4]: 0.23 mg/dL
TOTAL PROTEIN [4]: 6.07 G/DL
URIC ACID [4]: 1.93 mg/dL
BASOPHIL [5]: 0.35%
EOSINOPHIL [5]: 0.7%
ERYTHROCYTE COUNT [5]: 6.38 x10E6/uL
HEMATOCRIT [5]: 42.1%
HEMOGLOBIN [5]: 13.35 G/DL
LEUKOCYTE COUNT [5]: 11.54 x10E3/uL
LYMPHOCYTE [5]: 82.75%
MEAN CORPUSCULAR HEMOGLOBIN [5]: 20.9 pg
MEAN CORPUSCULAR HEMOGLOBIN CONCENTRATION [5]: 31.65 G/DL
MEAN CORPUSCULAR VOLUME [5]: 66.05 fL
MONOCYTE [5]: 2%
NEUTROPHIL [5]: 6.45%
PLATELET COUNT [5]: 1169 x10E3/uL
ALANINE AMINOTRANSFERASE [5]: 28.5 u/L
ALBUMIN [5]: 4 G/DL
ALKALINE PHOSPHATASE [5]: 238.5 u/L
ASPARTATE AMINOTRANSFERASE [5]: 69.5 u/L
BLOOD UREA NITROGEN [5]: 17.5 mg/dL
CARBON DIOXIDE [5]: 23 mmol/L
CHLORIDE [5]: 107.5 MEQ/L
CHOLESTEROL [5]: 62 mg/dL
CREATINE PHOSPHOKINASE [5]: 269 u/L
CREATININE [5]: 0.25 mg/dL
GLUCOSE [5]: 145 mg/dL
LACTATE DEHYDROGENASE [5]: 62 u/L
LIPASE [5]: 19 u/L
PHOSPHORUS [5]: 13.95 mg/dL
POTASSIUM [5]: 7.05 MEQ/L
SODIUM [5]: 149.5 MEQ/L
TOTAL BILIRUBIN [5]: 0.4 mg/dL
TOTAL PROTEIN [5]: 6.15 G/DL
URIC ACID [5]: 2.85 mg/dL

From ChEMBL document CHEMBL3885881, “DrugMatrix”
